In patent US12084472B2 (Ardelyx, Inc., priority 2015, dated 2024):

molecular target: T1, human TGR5 (Homo sapiens, UniProt Q8TDU6); assay: Cell-based TGR5 assay (cAMP generation, HTRF); settings: HEK293 cells stably transfected with human TGR5; cAMP by HTRF; 30 minutes at 37° C.; read-out: pEC50 Human TGR5 (converted)
T1 construct: expressed in transfected cells; host or cells: HEK293
T1 sequence (Q8TDU6 1-330): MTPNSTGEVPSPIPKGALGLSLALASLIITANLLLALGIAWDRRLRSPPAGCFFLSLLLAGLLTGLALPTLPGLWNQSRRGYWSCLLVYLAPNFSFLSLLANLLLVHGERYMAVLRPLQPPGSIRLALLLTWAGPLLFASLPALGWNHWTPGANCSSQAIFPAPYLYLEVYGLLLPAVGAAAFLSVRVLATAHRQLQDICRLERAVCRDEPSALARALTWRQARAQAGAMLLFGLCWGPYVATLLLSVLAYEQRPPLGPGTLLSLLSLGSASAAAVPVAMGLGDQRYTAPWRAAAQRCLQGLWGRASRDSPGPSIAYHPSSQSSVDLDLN
Procedure, shortened: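 Read-out was HTRF detection of cAMP, converted to concentration via a standard curve and fitted (3-parameter logistic) for pEC50 and maximal response. Agonist stimulation used HEK293 cells stably transfected with human TGR5, incubated 30 min at 37° C in IBMX-containing buffer at 0.05 nM to 10 μM compound.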

| Compound | EC50 |
| --- | --- |
| O=C(NCCCCCSc1ccc(Cl)c(CNC2(c3cnccc3-c3ccccc3OC3CC3)CC2)c1)NC[C@H](O)[C@@H](O)[C@H](O)[C@H](O)CO [Compound I-494, 1-[5-([4-Chloro-3-[([1-[4-(2-cyclopropoxyphenyl)pyridin-3-yl]cyclopropyl]amino)methyl]phenyl]sulfanyl)pentyl]-3-[(2S,3R,4R,5R)-2,3,4,5,6-pentahydroxyhexyl]urea] | < 0.1 µM |
| C[C@H](CCCCN)c1ccc(Cl)c(COC2(c3cnccc3-c3ccccc3OC3CC3)CC2)c1 (single isomer, unassigned) [Compound I-245] | 0.126 to 1 µM |
| O=C(NCCCCc1ccc(Cl)c(CNC2(c3cnccc3-c3ccccc3OC3CC3)CC2)c1)NC[C@H](O)[C@@H](O)[C@H](O)[C@H](O)CO [Compound I-64, 1-(4-[4-chloro-3-[([1-[4-(2-cyclopropoxyphenyl)pyridin-3-yl]cyclopropyl]amino)methyl]phenyl]butyl)-3-[(2S,3R,4R,5R)-2,3,4,5,6-pentahydroxyhexyl]urea] | < 0.1 µM |
| O=C([C@H](O)[C@@H](O)[C@H](O)[C@H](O)CO)N(CCCCO)CCCCc1cc(Cl)c(COC2(c3cnccc3-c3ccccc3OC3CC3)CC2)cc1Cl [Compound I-81, (2R,3S,4R,5R)-N-(4-(2,5-dichloro-4-((1-(4-(2-cyclopropoxyphenyl)pyridin-3-yl)cyclopropoxy)methyl)phenyl)butyl)-2,3,4,5,6-pentahydroxy-N-(4-hydroxybutyl)hexanamide] | < 0.1 µM |
| CN(C)C(=O)CCN(C[C@H](O)[C@@H](O)[C@H](O)[C@H](O)CO)C(=O)CCCCc1cc(Cl)c(COC2(c3cnccc3-c3ccccc3OC3CC3)CC2)cc1Cl [Compound I-222, 5-[2,5-dichloro-4-({1-[4-(2-cyclopropoxyphenyl)pyridin-3-yl]cyclopropoxy}methyl)phenyl]-N-[2-(dimethylcarbamoyl)ethyl]-N-[(2S,3R,4R,5R)-2,3,4,5,6-pentahydroxyhexyl]pentanamide] | < 0.1 µM |

Results, then the compound that gave them:

| EC50 | Compound |
| --- | --- |
| < 0.1 µM | O=C(NCCCCSc1ccc(Cl)c(COC2(c3cnccc3-c3ccccc3OC3CC3)CC2)c1)NC[C@H](O)[C@@H](O)[C@H](O)[C@H](O)CO [Compound I-621, 1-(4-{[4-chloro-3-({1-[4-(2-cyclopropoxyphenyl)pyridin-3-yl]cyclopropoxy}methyl)phenyl]sulfanyl}butyl)-3-[(2S,3R,4R,5R)-2,3,4,5,6-pentahydroxyhexyl]urea] |
| 1.26 to 10 µM | Cc1ccc(SCCCCC(=O)NC[C@H](O)[C@@H](O)[C@H](O)[C@H](O)CO)nc1COC1(c2cnccc2-c2ccccc2OC2CC2)CC1 [Compound I-657, 5-{[6-({1-[4-(2-cyclopropoxyphenyl)pyridin-3-yl]cyclopropoxy}methyl)-5-methylpyridin-2-yl]sulfanyl}-N-[(2S,3R,4R,5R)-2,3,4,5,6-pentahydroxyhexyl]pentanamide] |
| < 0.1 µM | O=C(NCCCCCSc1ccc(Cl)c(COC2(c3cnccc3-c3ccccc3OC3CC3)CC2)c1)N[C@@H](CO)[C@@H](O)[C@H](O)[C@H](O)CO [Compound I-636, 1-(5-{[4-chloro-3-({1-[4-(2-cyclopropoxyphenyl)pyridin-3-yl]cyclopropoxy}methyl)phenyl]sulfanyl}pentyl)-3-[(2S,3R,4S,5R)-1,3,4,5,6-pentahydroxyhexan-2-yl]urea] |
| 0.126 to 1 µM | Cc1ccc(SCCCCN(CCOCCO)C(=O)[C@@H](O)[C@@H](O)[C@H](O)[C@@H](O)CO)cc1COC1(c2cnccc2-c2ccccc2OC2CC2)CC1 [Compound I-551, (2S,3S,4R,5S)-N-(4-{[3-({1-[4-(2-cyclopropoxyphenyl)pyridin-3-yl]cyclopropoxy}methyl)-4-methylphenyl]sulfanyl}butyl)-2,3,4,5,6-pentahydroxy-N-[2-(2-hydroxyethoxy)ethyl]hexanamide] |
| 0.126 to 1 µM | CN1CCCN(S(=O)(=O)c2ccc(Cl)c(COC3(c4cnccc4-c4ccccc4OC4CC4)CC3)c2)CC1 [Compound I-769, 1-((4-chloro-3-((1-(4-(2-cyclopropoxyphenyl)pyridin-3-yl)cyclopropoxy)methyl)phenyl)sulfonyl)-4-methyl-1,4-diazepane] |
